Eleven compounds from patent US20240270748A1 (Merck Patent GmbH, priority 2021, published 2024) can be followed below.

The subject of one test is SW620 Yap KO cells. Nature of the test: Viability assay in SW620 Yap KO (Yap independent) cells, CyQuant. It counts as cell-based. Conditions: Homo sapiens, SW-620, 96 h, n.d. = value not detectable below threshold given in parentheses. A digest of the protocol:
(§1)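 Seeded cells were dosed 24 h later in duplicate (10-point, 1:3 dilutions, top 30 μM final, 0.3% DMSO) and incubated 96 h at 37 °C. Viability was read with CyQUANT DNA dye after 1 h, fluorescence bottom read. NCI-H226 in RPMI 1640 medium; SW620 YAP/TAZ CRISPR knockout in DMEM/F-12 medium.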

Another test has as its system YAP-TEAD interaction. The experiment in a line: SK-HEP-1 reporter assay (8xTEAD responsive elements driving NanoLuc luciferase). It counts as cell-based. Conditions: Homo sapiens, SK-HEP1, SK-HEP-1 reporter assay. In outline:
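Reporter read-out: NanoLuc luminescence from 8×TEAD elements stably integrated in SK-HEP-1 cells, after 24 h compound exposure at 37° C. Ten concentrations tested in duplicate, top 30 μM final, 0.3% DMSO; IC50 from curve.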
On the technique in general: Reporter assays use an easily measured gene product as a stand-in for the process of interest.

A further test concerns NCI-H226 cells. Nature of the test: Viability assay in NCI-H226 (Yap-dependent) cells, CyQuant. It counts as cell-based, human. The conditions noted are these: Homo sapiens, NCI-H226, 96 h, class symbols. A digest of the protocol: as §1
The mark [1] stands for this setting: ND = not determinable within the entire range.
[2] abbreviates: n.d. = value not detectable below threshold given in parentheses.

A word on the IC50: it is the concentration that inhibits the measured activity by half. As for `Cn1nc2c3cc(C(=O)N=S(C)(=O)CCCO)ccc3n(-c3ccc(C(F)(F)F)cc3)c2n1` (stereo not drawn) [Example C25, N-[(3-hydroxypropyl)(methyl)oxo -¿6-sulfanylidene]-2-methyl-4-[4-(trifluoromethyl)phenyl]-2H,4H-[1,2,3]triazolo[4,5-b]indole-7-carboxamide], the IC50 is greater than 30000 nM in the test with SW620 Yap KO cells (setting [1]), 10 to 100 nM with YAP-TEAD interaction (class symbols) and 1 to 100 nM in the test on NCI-H226 cells.
For the compound `Cc1cc(C(CO)NC(=O)c2ccc3c(c2)c2cn(C)nc2n3-c2ccc(C(F)(F)F)cc2)ccn1` (stereo not drawn) [Example C219, N-[2-hydroxy-1-(2-methylpyridin-4-yl)ethyl]-2-methyl-8-[4-(trifluoromethyl)phenyl]-2H,8H-pyrazolo[3,4-b]indole-5-carboxamide], the IC50 was greater than 3000 nM in the test on SW620 Yap KO cells, 10 to 100 nM in the test on YAP-TEAD interaction (class symbols) and 100 to 1000 nM in the test with NCI-H226 cells.
Turning to `C[C@@H](CCN(C)C(=O)c1ccc2c(c1)c1cn(C)nc1n2-c1ccc(C(F)(F)F)cc1)NC(=O)c1ccc2c(c1)c1cn(C)nc1n2-c1ccc(C(F)(F)F)cc1` [Example C48, N,2-dimethyl-N-[(3S)-3-({2-methyl-8-[4-(trifluoromethyl)phenyl]-2H,8H-pyrazolo[3,4-b]indol-5-yl}formamido)butyl]-8-[4-(trifluoromethyl)phenyl]-2H,8H-pyrazolo[3,4-b]indole-5-carboxamide], the results for the IC50 in the test with SW620 Yap KO cells (setting [1]), in the test with YAP-TEAD interaction (class symbols) and in the test with NCI-H226 cells were greater than 3200 nM, 100 to 10000 nM and 1000 to 10000 nM, respectively.
Regarding `C[C@@H](CO)C(=O)Nc1ccc2c(c1)c1cn(C)nc1n2-c1ccc(C(F)(F)F)cc1` [Example C153, (2S)-3-hydroxy-2-methyl-N-{2-methyl-8-[4-(trifluoromethyl)phenyl]-2H,8H-pyrazolo[3,4-b]indol-5-yl}propanamide], the IC50 in the test on SW620 Yap KO cells (setting [1]) is greater than 30000 nM; in the test on YAP-TEAD interaction (class symbols) it was 10 to 100 nM; in the test with NCI-H226 cells, 1 to 100 nM.
Turning to `O=C(O)c1ccc2c(c1)c1cn(C(F)(F)F)nc1n2-c1ccc(C(F)(F)F)cc1` [Example C35, 2-(trifluoromethyl)-8-[4-(trifluoromethyl)phenyl]-2H,8H-pyrazolo[3,4-b]indole-5-carboxylic acid], the IC50 in the test with SW620 Yap KO cells (setting [1]) is greater than 30000 nM; in the test on YAP-TEAD interaction (class symbols), 10 to 100 nM; in the test on NCI-H226 cells, 1000 to 10000 nM.
In the case of `C[C@@H](NC(=O)c1ccc2c(c1)c1cn(C)nc1n2-c1ccc(C(F)(F)F)cc1)c1ccc(N)nc1` [Example C257, N-[(1R)-1-(6-aminopyridin-3-yl)ethyl]-2-methyl-8-[4-(trifluoromethyl)phenyl]-2H,8H-pyrazolo[3,4-b]indole-5-carboxamide], the IC50 in the test with SW620 Yap KO cells is greater than 30000 nM; with YAP-TEAD interaction (class symbols), 100 to 10000 nM; in the test with NCI-H226 cells, 1 to 100 nM.
Regarding `Cn1nc2c3cc(C(=O)N=[S@](=O)(CCCO)Cc4cccnc4)ccc3n(-c3ccc(C(F)(F)F)cc3)c2n1` (single isomer, unassigned) [Example C202], the IC50 in the test on SW620 Yap KO cells is greater than 3000 nM; with YAP-TEAD interaction (setting [2]), greater than 300 nM; in the test on NCI-H226 cells, 100 to 1000 nM.
The corresponding values for `Cn1nc2c3cc(C(=O)N=[S@@](=O)(CCCO)Cc4ccncc4)ccc3n(-c3ccc(C(F)(F)F)cc3)c2n1` (single isomer, unassigned) [Example C250] are greater than 3000 nM, greater than 300 nM and 1 to 100 nM.
Take `Cn1cc2c3cc(C(=O)N=[S@@](C)(=O)CCO)ccc3n(-c3ccc(C(F)(F)F)cc3)c2n1` (single isomer, unassigned) [Example C74]: the IC50 in the test on SW620 Yap KO cells (setting [1]) was greater than 30000 nM; in the test on YAP-TEAD interaction (class symbols), 10 to 100 nM; in the test with NCI-H226 cells, 1 to 100 nM.
Taken in the same sequence, the figures for `Cc1snc2c1c1cc(C(=O)NC[C@@H](C)O)ccc1n2-c1ccc(C(F)(F)F)cc1` [Example C90, N-[(2R)-2-hydroxypropyl]-3-methyl-8-[4-(trifluoromethyl)phenyl]-8H-[1,2]thiazolo [3,4-b]indole-5-carboxamide] were greater than 3200 nM, 10 to 100 nM and 1 to 100 nM.
Taken in the same sequence, the figures for `Cc1snc2c1c1cc(C(=O)N=S(C)(=O)CCO)ccc1n2-c1ccc(C(F)(F)F)cc1` (single isomer, unassigned) [Example C102] were greater than 30000 nM, 10 to 100 nM and 1 to 100 nM.
